Measurements reported in US9096539B2, “Substituted 4,5-dihydro-2H-benzo[e]indazole-9-carboxylates for the treatment of diabetes and related disorders” (Council of Scientific & Industrial Research, priority 2012, dated 2015).
Read-outs that look alike come from different tables or passages of the source. Blank lines part the entries; values can stand above or below the compound they belong to.

Legend:
[1] = biological target: T1, human recombinant PTP1B enzyme (Homo sapiens, UniProt P18031); experiment: Protein tyrosine phosphatase-1B assay (colorimetric kit BML-AK 822); type: biochemical; conditions: read-out: % Inhibition (PTP-1B)
T1 construct: purchased Enzo Life Sciences, USA BML-AK 822
T1 sequence (P18031 1-322 limits assumed): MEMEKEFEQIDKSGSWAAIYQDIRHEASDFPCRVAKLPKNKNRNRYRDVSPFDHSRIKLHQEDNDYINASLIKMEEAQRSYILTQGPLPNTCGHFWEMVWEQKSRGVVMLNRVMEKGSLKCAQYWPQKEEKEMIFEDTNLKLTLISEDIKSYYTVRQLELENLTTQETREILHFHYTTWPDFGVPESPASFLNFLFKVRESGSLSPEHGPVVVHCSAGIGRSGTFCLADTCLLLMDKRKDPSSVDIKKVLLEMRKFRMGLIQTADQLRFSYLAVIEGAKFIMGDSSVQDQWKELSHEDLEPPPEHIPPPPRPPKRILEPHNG
Description: Assay was done according to the Kit manufacturers protocol, in brief the reaction was carried out in 96 well flat bottomed microtiter plate by the addition of assay buffer, solution of test compounds and diluted PTP1B enzyme. Enzyme reaction was initiated by addition of 50 μl of warmed 2× substrate then incubated the plate at 30° C. for 30 min. After incubation for 30 min. Reaction was terminated by addition of 25 μl of biomol red reagent and mixed thoroughly by repeated pipetting. […] Volumes and dilution of other component were accordingly as instructed in the manual provided in the kit. PTP1B phosphatase acting on the phosphopeptide substrate and release phosphate. The detection of free phosphate released is based on classic Malachite green assay. After adding biomol red to reaction wells after 30 minutes of incubation as described earlier the plate was incubated for another 20 min to develop the colour. Absorbance was recorded at 620 nm. on a microplate reader.

[2] = system: low dosed STZ induced diabetic rats; experiment: Antihyperglycaemic activity in low dosed streptozotocin induced diabetic rats (STZ); type: in vivo, rat; conditions: low dosed STZ diabetic rats, compounds 100 mg/kg, Januvia 50 mg/kg
Description: (§1) The test compounds and standard antidiabetic drug Januvia were prepared in 1.0% freshly prepared Gum acacia.
Assessment of Test Compounds for Antihyperglycaemic Activity in Low Dosed Streptozotocin Induced Diabetic Rats—
Induction of Diabetes in Rats:
Overnight starved male albino rats of Sprague Dawley strain were used and Diabetes was induced in the animals by single intraperitoneal injection of Streptozotocin at 60 mg/kg body weight dose prepared in 0.1M citrate buffer (pH 4.5). Fasting blood glucose level was measured by using a Glucometer (ACCU-CHEK II; Roche Diagnostics, USA) after 48 hours and animals showing blood glucose level above 300 mg/di were considered as diabetic.
The diabetic animals were divided into four groups (Group 1 to 4) each consisting 6 rats. Group 1 received 0.4 ml vehicle (1% gum acacia). Group 2 received the test compound 5 at an oral dose of 100 mg/kg/body weight. Group 3 was given compound 6 at an oral dose of 100 mg/kg/body weight. The standard antidiabetic drug Januvia was given to the animals of Group 4 at an oral dose of 50 mg/kg body weight. […] Food but not water was withheld from the cages during the course of experimentation. Percent hyperglycemic activity was determined by comparing the AUC (area under curve) of experimental groups with that of the vehicle treated control group.
(§2) Quantitative glucose tolerance of each animal was calculated by the area under the curve (AUC) method using Prism Software. The area under the curve of the control group and the experimental group was compared to determine the percent antihyperglycaemic activity. Statistical comparisons were performed by one-way analysis of variance (ANOVA), followed by Dunnett's multiple range test (DMRT). The results were considered statistically significant if the ‘p’ values were 0.05 or less. Results were expressed as mean±SEM.

[3] = system: sucrose challenged STZ induced diabetic rats; experiment: Antihyperglycaemic activity in sucrose challenged streptozotocin (STZ)-induced diabetic rats (STZ-S); type: in vivo, rat; conditions: compounds 100 mg/kg, Januvia 50 mg/kg
Description: The test compounds and standard antidiabetic drug Januvia were prepared in 1.0% freshly prepared Gum acacia. Assessment of Test Compounds for Antihyperglycaemic Activity in Sucrose Challenged Streptozotocin STZ-Induced Diabetic Rats— Induction of Diabetes in Rats: Overnight starved male albino rats of Sprague Dawley strain were used and Diabetes was induced in the animals by single intraperitoneal injection of Streptozotocin at 60 mg/kg body weight dose prepared in 0.1M citrate buffer (pH 4.5). Fasting blood glucose level was measured by using a Glucometer (ACCU-CHEK II; […] Grouping and Treatment: […] All the diabetic animals were again divided into groups with five animals in each group. Animals of one group were regarded as the control group (orally administered 1% gum acacia) and the others were treated as the experimental groups. […] Animals of the control group were given an equal amount of 1.0% gum acacia. The standard antidiabetic drug Januvia was given to the animals at an oral dose of 50 mg/kg body weight. […] Food but not water was withheld from the cages during the course of experimentation. Percent hyperglycemic activity was determined by comparing the AUC (area under curve) of experimental groups with that of the vehicle treated control group. Quantitative glucose tolerance of each animal was calculated by the area under the curve (AUC) method using Prism Software. The area under the curve of the control group and the experimental group was compared to determine the percent antihyperglycaemic activity. Statistical comparisons were performed by one-way analysis of variance (ANOVA), followed by Dunnett's multiple range test (DMRT). […] Results were expressed as mean±SEM.

[4] = system: sucrose loaded normoglycaemic rats; experiment: Antihyperglycaemic activity on sucrose loaded normoglycaemic rats (SLM); type: in vivo, rat; conditions: sucrose loaded normoglycaemic rats, compounds 100 mg/kg, Januvia 50 mg/kg; for Blood Glucose Profile 0 min: 0 min (fasting baseline); for Blood Glucose Profile 120 min: 120 min post sucrose
Description: as §1
Assessment of Test Compounds for Antihyperglycaemic Activity on Sucrose Loaded Normoglycaemic Rats—
In order to search towards the antidiabetic activity, synthetic compounds were preliminary evaluated for their effect on glucose tolerance in normal rats. It is an indirect effect of measuring antihyperglycaemic activity. Male albino rats of Wistar strain of body weight 160±20 g were selected for this study. The blood glucose of each animal was checked by glucometer using glucostrips (Accu-check) after 16 hours starvation. Animals showing blood glucose between 60 to 80 mg/dl (3.33 to 4.44 mM) were divided into groups of five to six animals in each. Rats of experimental group were administered suspension of the desired test compound orally (made in 1.0% gum acacia). The standard dose decided for Synthetic compounds is 100 mg/kg body weight. Animals of control group were given an equal amount of 1.0% gum acacia. A sucrose load (10.0 g/kg) was given to each animal orally exactly after 30 min post administration of the test sample/vehicle. Blood glucose profile of each rat was again determined at 30, 60, 90 and 120 min post administration of sucrose by glucometer. Food but not water was withheld from the cages during the course of experimentation. Quantitative glucose tolerance of each animal was calculated by area under curve (AUC) method using Prism Software. Comparing the AUC of experimental and control groups determined the percentage antihyperglycaemic activity. Statistical comparison was made by Dunnett's test.
as §2

[5] = Table 5, evaluated at 10 μM concentration
[6] = 0 min pre treatment (fasting baseline)

melting point: 235 to 237 °C
SMILES: COC(=O)c1c(SC)cc(-c2ccc3ccccc3c2)c2c1-c1cn(-c3ccccc3)nc1C2 [compound 13, Methyl 5-(methylthio)-7-(naphthalen-2-yl)-2-phenyl-2,8-dihydroindeno[2,1-c]pyrazole-4-carboxylate]

melting point: 182 to 184 °C
inhibition at 10 µM [1, 5]: 14.6%
SMILES: COC(=O)c1c(SC)cc(-c2ccc(F)cc2)c2c1-c1cn(-c3ccccc3)nc1CC2 [compound 8, methyl 6-(4-fluorophenyl)-8-(methylthio)-2-phenyl-4,5-dihydro-2H-benzo[e]indazole-9-carboxylate]

melting point: 172 to 174 °C
inhibition at 10 µM [1, 5]: 8.43%
SMILES: COC(=O)c1c(SC)cc(-c2ccc(OC)cc2)c2c1-c1cn(-c3ccccc3)nc1CC2 [compound 3, methyl 6-(4-methoxyphenyl)-8-(methylthio)-2-phenyl-4,5-dihydro-2H-benzo[e]indazole-9-carboxylate]

melting point: 174 to 176 °C
inhibition at 10 µM [1, 5]: 12.7%
SMILES: COC(=O)c1c(SC)cc(-c2cccs2)c2c1-c1cn(-c3ccccc3)nc1CC2 [compound 7, methyl 8-(methylthio)-2-phenyl-6-(thiophen-2-yl)-4,5-dihydro-2H-benzo[e]indazole-9-carboxylate]

melting point: 228 to 230 °C
inhibition at 10 µM [1, 5]: 26.4%
SMILES: COC(=O)c1c(S(C)(=O)=O)cc(-c2ccc(C)cc2)c2c1-c1cn(-c3ccccc3)nc1CC2 [compound 12, methyl 8-(methylsulfonyl)-2-phenyl-6-(p-tolyl)-4,5-dihydro-2H-benzo[e]indazole-9-carboxylate]

The remaining lines, values behind:

SMILES: Cc1ccc(C(=O)Nc2ccc(S(=O)(=O)O)c3cc(S(=O)(=O)O)cc(S(=O)(=O)O)c23)cc1NC(=O)c1cccc(NC(=O)Nc2cccc(C(=O)Nc3cc(C(=O)Nc4ccc(S(=O)(=O)O)c5cc(S(=O)(=O)O)cc(S(=O)(=O)O)c45)ccc3C)c2)c1 [Standard Suramin, suramin, reference compound]
inhibition at 10 µM [1, 5]: 60.2%

SMILES: COC(=O)c1c(SC)cc(-c2ccc3ccc4cccc5ccc2c3c45)c2c1-c1cn(-c3ccccc3)nc1CC2 [compound 9, methyl 8-(methylthio)-2-phenyl-6-(pyren-1-yl)-4,5-dihydro-2H-benzo[e]indazole-9-carboxylate]
melting point: 174 to 176 °C
inhibition at 10 µM [1]: 10.7%

SMILES: N[C@@H](CC(=O)N1CCn2c(nnc2C(F)(F)F)C1)Cc1cc(F)c(F)cc1F [Januvia, reference compound]
Blood Glucose Profile 0 min (Pre treatment) [2, 6]: 341.4 ± 3.53 mg/dL
Blood Glucose Profile 30 min (Post treatment) ([2]; 30 min): 445.8 ± 13.0 mg/dL
Blood Glucose Profile 60 min (Post treatment) ([2]; 60 min): 497.4 ± 11.2 mg/dL
Blood Glucose Profile 90 min (Post treatment) ([2]; 90 min): 473.4 ± 11.2 mg/dL
Blood Glucose Profile 120 min (Post treatment) ([2]; 120 min): 392.0 ± 11.8 mg/dL
Blood Glucose Profile 180 min (Post treatment) ([2]; 180 min): 348.2 ± 16.7 mg/dL
Blood Glucose Profile 240 min (Post treatment) ([2]; 240 min): 300.4 ± 14.7 mg/dL
Blood Glucose Profile 300 min (Post treatment) ([2]; 300 min): 255.0 ± 16.9 mg/dL
Blood Glucose Profile 1440 min (Post treatment) ([2]; 1440 min): 484.4 ± 10.7 mg/dL
% Antihyperglycaemic activity STZ 0-5 h AUC ([2]; 0-5 h AUC, oral): 28.2%
% Antihyperglycaemic activity STZ 0-24 h AUC ([2]; 0-24 h AUC, oral): 27.4%
% Antihyperglycaemic activity STZ-S 0-5 h AUC ([3]; 0-5 h AUC, oral): 21.8%
% Antihyperglycaemic activity STZ-S 0-24 h AUC ([3]; 0-24 h AUC, oral): 23.8%
Blood Glucose Profile 0 min (Pre treatment) [3, 6]: 222.3 ± 16.2 mg/dL
Blood Glucose Profile 30 min (Post treatment) ([3]; 30 min): 455.0 ± 14.2 mg/dL
Blood Glucose Profile 60 min (Post treatment) ([3]; 60 min): 519.8 ± 16.0 mg/dL
Blood Glucose Profile 90 min (Post treatment) ([3]; 90 min): 469.3 ± 9.40 mg/dL
Blood Glucose Profile 120 min (Post treatment) ([3]; 120 min): 439.3 ± 14.2 mg/dL
Blood Glucose Profile 180 min (Post treatment) ([3]; 180 min): 377.6 ± 10.1 mg/dL
Blood Glucose Profile 240 min (Post treatment) ([3]; 240 min): 359.5 ± 10.1 mg/dL
Blood Glucose Profile 300 min (Post treatment) ([3]; 300 min): 337.6 ± 8.18 mg/dL
Blood Glucose Profile 1440 min (Post treatment) ([3]; 1440 min): 394.6 ± 8.34 mg/dL
Blood Glucose Profile 0 min ([4]; mean ± S.E.): 66.3 ± 3.12 mg/dL
Blood Glucose Profile 0 min ([4]; mean ± S.E., listed as januvia): 66.2 ± 0.73 mg/dL
Blood Glucose Profile 30 min ([4]; 30 min post sucrose, mean ± S.E.): 114.0 ± 8.21 mg/dL
Blood Glucose Profile 60 min ([4]; 60 min post sucrose, mean ± S.E.): 104.8 ± 5.70 mg/dL
Blood Glucose Profile 90 min ([4]; 90 min post sucrose, mean ± S.E.): 112.0 ± 7.30 mg/dL
Blood Glucose Profile 120 min ([4]; mean ± S.E.): 115.0 ± 7.67 mg/dL
Blood Glucose Profile 120 min ([4]; mean ± S.E., listed as januvia): 115.0 ± 7.67 mg/dL
% Antihyperglycaemic activity SLM ([4]; AUC vs control, oral): 35.0%
